From US10154992B2, “Compounds and methods for treating HIV infection” (THE REGENTS OF THE UNIVERSITY OF CALIFORNIA, priority 2016, dated 2018)
Like-named read-outs stand apart in the source and are kept apart here.

How the values were obtained:
Assay type in all cases: cell-based
[1] = MTT cell viability in parallel with the U1 assay; details: human, U1 cells, read-out: U1 TC50
Description: (§1) U1 activation assay. U1 cells obtained from the AIDS Research and Reference Reagent Program were maintained under standard culture conditions in RPMI 1640 supplemented with 10% fetal bovine serum (heat inactivated), 2 mM L-glutamine, 100U/mL penicillin and 100 μg/mL streptomycin. U1 cells contain an integrated copy of a phorbol ester inducible HIV-1 provirus and addition of phytohemagglutinin (PHA) to the cell culture was used to induce virus production. On the day of the assay, the U1 cells were activated with PHA and 250,000 cells were plated in 96-well plates. Test compounds were diluted in media and applied to the cells at final concentrations from 1 to 10,000 nM. Cultures were incubated for 3 days and supernatants harvested. Cell-free virus production was measured by p24 ELISA on culture supernatant. Compound toxicity was determined by MTT cell-viability assay in parallel assays.

[2] = MTT cell viability run in parallel with the Tat-hybrid assay; details: human, Tat-hybrid reporter cell lines (HeLa); for CC50 at 48 h: Table 5, read-out: Tat hybrid TC50; for EC50 at 48 h: Table 6, second 'EC50' entry of the cell, values D/E
Description: (§2) Cells were counted and plated into white 384-well or 96-well cell-culture treated assay plates and compounds were added. After 48 hours, the cells were prepared for luminescence assays that were performed on a plate reader (Tecan Evolution or MD Analyst). The cytotoxicity of each compound was determined in parallel via MTT-based cell viability assays.
as §2, with “Tat hybrid reporter assay. […] Previously characterized thienopyridines and diaminoacridine were used as controls. Cells” for “Cells”, “384-well” for “384-well or 96-well”, “lumincescence” for “luminescence”, “assays. […]” for “assays.”

[3] = tested on: HIV-1 provirus in U1 cells; assay: U1 activation (latency) assay, p24 ELISA
Description: as §1

[4] = tested on: Tat-hybrid reporter cell lines (HeLa); assay: MTT cell viability run in parallel with the Tat-hybrid assay; details: Table 6; at 50,000 nM
Description: as §2
as §2, with “Tat hybrid reporter assay. […] Previously characterized thienopyridines and diaminoacridine were used as controls. Cells” for “Cells”, “384-well” for “384-well or 96-well”, “lumincescence” for “luminescence”, “assays. […]” for “assays.”

[5] = Human immunodeficiency virus 1, Table 5, read-out: U1 IC50
[6] = Human immunodeficiency virus 1, read-out: U1 cell IC50 (nM)
[7] = Human immunodeficiency virus 1, Table 2, read-out: U1 cell IC50

Row | SMILES | CC50 at 3 days ([1]; Table 5) [µM] | CC50 at 48 h [2] [µM] | IC50 [3, 5] [nM] | further results
1 | NC(=O)c1cc2c(N3CCCCC3)cncc2s1 | < 40 | > 40 | 100 to 500 | 
2 | NC(=O)c1cc2c(-c3ccccc3OC(F)(F)F)cncc2s1 | < 40 | > 40 | > 500 | 
3 | COc1ccccc1-c1cncc2sc(C(N)=O)c(N)c12 | > 40 | > 40 | 100 to 500 | 
4 | Cc1ccc(-c2c3c(nc4sc(C(N)=O)c(N)c24)CCC3)cc1 |  |  |  | CC50 at 3 days ([1]; Table 6): < 40 µM; Tat hybrid cell viability at 50,000 nM [4]: X (X = >60%); IC50 ([3]; Human immunodeficiency virus 1, Table 6, read-out: U1 IC50): > 500 nM
5 | COc1cc2c(cc1OC)CN(c1cncc3sc(C(N)=O)c(N)c13)CC2 | < 40 | < 40 | < 100 | 
6 | CCOc1ccc(-c2cncc3sc(C(N)=O)cc23)cc1 | < 40 | < 40 | < 100 | 
7 | Cc1noc(C2CCCN(c3cncc4sc(C(N)=O)c(N)c34)C2)n1 (stereo not drawn) [drawing 169] | > 40 | < 40 | > 500 | 
8 | NC(=O)c1sc2cncc(-c3ccc4c(c3)OCO4)c2c1N [drawing 157] | > 40 | < 40 | 100 to 500 | 
9 | CN(C)c1ccc(-c2cncc3sc(C(N)=O)c(N)c23)cc1 | > 40 | < 40 | < 100 | 
10 | NC(=O)c1cc2c(-c3cc4ccccc4o3)cncc2s1 | < 40 | > 40 | > 500 | 
11 | NC(=O)c1sc2cncc(N3CCC(C(N)=O)CC3)c2c1N [Compound 2c, 1-{3-amino-2-carbamoylthieno[2,3-c]pyridin-4-yl}piperidine-4-carboxamide] |  |  |  | IC50 [3, 6]: 100 to 500 nM
12 | COc1ccc(-c2cncc3sc(C(N)=O)c(N)c23)cc1 [drawing 136] | > 40 | < 40 | < 100 | 
13 | CN(C)c1cccc(-c2cncc3sc(C(N)=O)c(N)c23)c1 | > 40 | < 40 | 100 to 500 | 
14 | CNC(=O)c1ccc(-c2cncc3sc(C(N)=O)c(N)c23)cc1 | > 40 | < 40 | < 100 | 
15 | CN(C)C(=O)c1ccc(-c2cncc3sc(C(N)=O)c(N)c23)cc1 | > 40 | < 40 | 100 to 500 | 
16 | Cc1noc(C2CCCN(c3cncc4sc(C(N)=O)c(N)c34)C2)n1 (stereo not drawn) [Compound 2k, 3-amino-4-[3-(3-methyl-1,2,4-oxadiazol-5-yl)piperidin-1-yl]thieno[2,3-c]pyridine-2-carboxamide] |  |  |  | IC50 [3, 6]: > 500 nM
17 | COC(=O)c1sc2nccc(N(C)C)c2c1N |  |  |  | EC50 at 48 h [2]: < 40 µM; Tat hybrid cell viability at 50,000 nM [4]: X (X = >60%)
18 | NC(=O)c1sc2cncc(N3CCC(Oc4ccccc4)CC3)c2c1N [Compound 2j, 3-amino-4-(4-phenoxypiperidin-1-yl)thieno[2,3-c]pyridine-2-carboxamide] |  |  |  | IC50 [3, 6]: < 100 nM
19 | CC(C)c1ccc2nc3sc(C(N)=O)c(N)c3cc2c1 |  |  |  | EC50 at 48 h [2]: < 40 µM; Tat hybrid cell viability at 50,000 nM [4]: X (X = >60%)
20 | NC(=O)c1sc2cncc(-c3ccoc3)c2c1N | < 40 | > 40 | 100 to 500 | 
21 | N#Cc1ccccc1-c1cncc2sc(C(N)=O)cc12 [Compound 4d, 4-(2-cyanophenyl)thieno[2,3-c]pyridine-2-carboxamide] |  |  |  | IC50 [3, 7]: > 500 nM
22 | N#Cc1ccc(-c2cncc3sc(C(N)=O)cc23)cc1F [Compound 4c, 4-(4-cyano-3-fluorophenyl)thieno[2,3-c]pyridine-2-carboxamide] |  |  |  | IC50 [3, 7]: 100 to 500 nM
23 | NC(=O)c1sc2cncc(N3CCC(Oc4ccccc4)CC3)c2c1N [drawing 139] | < 40 | > 40 | < 100 | 
24 | NC(=O)c1sc2cncc(-c3ccc4c(c3)OCCO4)c2c1N | > 40 | < 40 | 100 to 500 | 

Row | SMILES | CC50 at 3 days ([1]; Table 5) [µM] | CC50 at 48 h [2] [µM] | IC50 [3, 5] [nM] | further results
25 | NC(=O)c1cc2c(-c3ccc4c(c3)OCO4)cncc2s1 [Compound 4f, 4-(2H-1,3-benzodioxol-5-yl)thieno[2,3-c]pyridine-2-carboxamide] |  |  |  | IC50 [3, 7]: < 100 nM
26 | Cc1cc(C)c2c(N)c(C(=O)O)sc2n1 |  |  |  | EC50 at 48 h [2]: > 40 µM; Tat hybrid cell viability at 50,000 nM [4]: X (X = >60%)
27 | NC(=O)c1sc2cncc(N3CCCC3)c2c1N | > 40 |  | 100 to 500 | 
28 | Cc1cc(C(F)F)nc2sc(C(N)=O)c(N)c12 |  |  |  | EC50 at 48 h [2]: > 40 µM; Tat hybrid cell viability at 50,000 nM [4]: X (X = >60%)
29 | NC(=O)c1sc2cncc(N3CCC(C(N)=O)CC3)c2c1N [drawing 158] | > 40 | < 40 | 100 to 500 | 
30 | Cc1cc(C(F)(F)F)nc2sc(C(N)=O)c(N)c12 |  |  |  | EC50 at 48 h [2]: > 40 µM; Tat hybrid cell viability at 50,000 nM [4]: Y (Y = 30-60%)
31 | NC(=O)c1sc2cncc(-c3cccc4ccccc34)c2c1N | < 40 | > 40 | < 100 | 
32 | NC(=O)c1sc2cncc(-c3ccc4c(c3)OCO4)c2c1N [Compound 3f, 3-amino-4-(2H-1,3-benzodioxol-5-yl)thieno[2,3-c]pyridine-2-carboxamide] |  |  |  | IC50 [3, 7]: 100 to 500 nM
33 | NC(=O)c1sc2cncc(N3CCC4(CC3)OCCO4)c2c1N [Compound 2g, 3-amino-4-{1,4-dioxa-8-azaspiro[4.5]decan-8-yl}thieno[2,3-c]pyridine-2-carboxamide] |  |  |  | IC50 [3, 6]: 100 to 500 nM
34 | NC(=O)c1sc2cncc(-c3ccccc3)c2c1N | > 40 |  | 100 to 500 | 
35 | COc1ccc(-c2cncc3sc(C(N)=O)c(N)c23)cc1 [Compound 3a, 3-amino-4-(4-methoxyphenyl)thieno[2,3-c]pyridine-2-carboxamide] |  |  |  | IC50 [3, 7]: < 100 nM
36 | Cc1nc2sc(C(N)=O)c(N)c2c(C)c1C |  |  |  | EC50 at 48 h [2]: > 40 µM; Tat hybrid cell viability at 50,000 nM [4]: X (X = >60%)
37 | COC(=O)c1sc2nc(C)cc(C)c2c1N |  |  |  | EC50 at 48 h [2]: > 40 µM; Tat hybrid cell viability at 50,000 nM [4]: X (X = >60%)
38 | N#Cc1ccc(-c2cncc3sc(C(N)=O)cc23)cc1F [drawing 143] |  | > 40 | 100 to 500 | 
39 | NC(=O)c1cc2c(-c3cccc(-c4ccccc4)c3)cncc2s1 [Compound 4j, 4-(3-phenylphenyl)thieno[2,3-c]pyridine-2-carboxamide] |  |  |  | IC50 [3, 7]: 100 to 500 nM
40 | NC(=O)c1sc2nc(-c3cccnc3)ccc2c1N |  |  |  | EC50 at 48 h [2]: < 40 µM; Tat hybrid cell viability at 50,000 nM [4]: X (X = >60%)
41 | CC(=O)c1sc2nc(C)cc(C)c2c1N |  |  |  | EC50 at 48 h [2]: > 40 µM; Tat hybrid cell viability at 50,000 nM [4]: Y (Y = 30-60%)
42 | NC(=O)c1sc2nccc(N3CCc4ccccc4C3)c2c1N [Compound 2i, 3-amino-4-(1,2,3,4-tetrahydroisoquinolin-2-yl)thieno[2,3-b]pyridine-2-carboxamide] |  |  |  | IC50 [3, 6]: < 100 nM
43 | COc1ccc(-c2cc(C3CC3)nc3sc(C(N)=O)c(N)c23)cc1 |  |  |  | EC50 at 48 h [2]: > 40 µM; Tat hybrid cell viability at 50,000 nM [4]: X (X = >60%)
44 | NC(=O)c1cc2c(-c3ccc(Oc4ccccc4)cc3)cncc2s1 |  | < 40 | 100 to 500 | 
45 | NC(=O)c1sc2cncc(-c3ccc4c(c3)CCO4)c2c1N [Compound 3e, 3-amino-4-(2,3-dihydro-1-benzofuran-5-yl)thieno[2,3-c]pyridine-2-carboxamide] |  |  |  | IC50 [3, 7]: < 100 nM
46 | CN(C)c1ccnc2sc(C(N)=O)c(N)c12 [Compound 1f, 3-amino-4-(dimethylamino)thieno[2,3-b]pyridine-2-carboxamide] |  |  |  | IC50 [3, 6]: > 500 nM
47 | NC(=O)c1sc2cncc(N3CCC(F)(F)CC3)c2c1N [Compound 2h, 3-amino-4-(4,4-difluoropiperidin-1-yl)thieno[2,3-c]pyridine-2-carboxamide] |  |  |  | IC50 [3, 6]: 100 to 500 nM
